In patent US11203636B2, “Treatment of existing left ventricular heart failure” (YALE UNIVERSITY, priority 2017, dated 2021):

Experiments:
[1] = test system: NKCC2, ENaC-beta, and NCC proteins in mouse M1 CCD cell line; assay: Expression of NKCC2, ENaC-beta and NCC in M1 CCD cells after treatment with IL-6 and/or Spironolactone (immunoblotting); format: cell-based; settings: FIGS. 5A-5C
Protocol: (§1) The mouse M1 CCD cell line (American Type Culture Collection (ATCC), Cat #CRL-2038) was maintained the cell culture medium containing equal amount of DMEM (Sigma-Aldrich, Cat #D6046) and Han F12 (Sigma-Aldrich, Cat #11765-047), supplemented with 5% Fetal Bovine Serum (FBS), 1% Penicillin-Streptomycin (Thermo Fisher Scientific, Cat #15140-122), 1% Insulin-Transferrin-Selenium (Thermo Fisher Scientific, Cat #51500-056) and 100 nM Dexamethasone (Sigma-Aldrich, Cat #D4902-100MG).
(§2) M1 CCD cells were seeded at 1 million/well in 6-well plate in the cell culture medium, and incubated overnight in a 37° C., 5% CO2 incubator on Day 0. The cell culture medium was changed to DMEM/F12 serum-free medium on Day 1 and the cells were incubated overnight in a 37° C., 5% CO2 incubator. On Day 2, the serum-free medium was removed and the cell culture medium was added to each well. Spironolactone (Selleckchem, Cat #54054) was added at the final concentration of 1 μM or 100 μM 10 min before the addition of IL-6 (Sigma-Aldrich, Cat #SRP3096-20UG) at the final concentration of 10 ng/mL, 100 ng/mL, or 500 ng/mL. A control well without Spironolactone or IL-6 was included. […] The sample were analyzed by immunoblotting using anti-NKCC2 antibody (Millipore, Cat #AB3562P), anti-ENaC-beta antibody (Millipore, Cat #AB3532P), or anti-NCC antibody (Millipore, Cat #AB3553) and the protein expression was quantified. […]

[2] = test system: NKCC2, ENaC-beta, and NCC proteins in mouse M1 CCD cell line; assay: Expression of NKCC2, ENaC-beta and NCC in M1 CCD cells after treatment with IL-6 and/or Ruxolitinib (immunoblotting); format: cell-based; settings: IL-6 10, 100 or 500 ng/mL, 24 hours, FIGS. 4A-4C
Protocol: as §1
as §2, with “Ruxolitinib” for “Spironolactone”, “#51378)” for “#54054)”

## CC(=O)S[C@@H]1CC2=CC(=O)CC[C@]2(C)[C@H]2CC[C@@]3(C)[C@@H](CC[C@@]34CCC(=O)O4)[C@H]12 [Spironolactone]
[1]; Spironolactone 1 μM or 100 μM added 10 min before IL-6, 24 hours
  effect of Spironolactone on the IL-6 effect on ion transporter proteins (NKCC2, ENaC-beta, NCC): blocked the effect of IL-6 on the ion transporter proteins

## IL-6: pro-inflammatory cytokine added to cells (Sigma-Aldrich, Cat #SRP3096-20UG)
[2]
  expression of NKCC2, ENaC-beta, and NCC after treatment of IL-6: increased the expression of NKCC2, ENaC-beta, and NCC
[1]; IL-6 10, 100 or 500 ng/mL, 24 hours, immunoblotting
  expression of NKCC2, ENaC-beta, and NCC after treatment of IL-6: increased the expression of NKCC2, ENaC-beta, and NCC
